{
  "source": "patent US20110052686A1",
  "about": "“MODIFIED RELEASE LAMOTRIGINE TABLETS” (RANBAXY LABORATORIES LIMITED, priority 2009, published 2011)",
  "origin": "cited, not measured here",
  "conditions": "oral administration",
  "data": [
    {"smiles": "Nc1nnc(-c2cccc(Cl)c2Cl)c(N)n1", "note": "[Lamotrigine, 3,5-diamino-6-(2,3-dichlorophenyl)-1,2,4-triazine]", "values": [
      {"measurement": "effect of food on bioavailability", "value": "not affected by food"},
      {"measurement": "first-pass metabolism", "value": "negligible first-pass metabolism"},
      {"measurement": "time of peak plasma concentrations following drug administration", "value": "1.4 to 4.8", "unit": "h"}
    ]}
  ]
}
